# Test: Sensory evaluation of Vermont drink containing the agent
# Details: ten panels
# Protocol: Water was added to a mixture of 10 g of apple-cider vinegar (acetic acid: 4.8%), 3 g of honey, 7 g of fructose-glucose liquid sugar mixed with sugar, 0.02 g of citric acid, 0.002 g of trisodium citrate, and 0.1 g of a Vermont flavor (manufactured by T. Hasegawa Co., Ltd.) to give a total amount of 100 mL. To the resulting mixture was added (Z,Z)-4,7-tridecadienal as the acid taste and/or acid smell-reducing agent of the present invention in concentrations shown in the following Table 1 to give Vermont drinks containing the agent.
# Sensory evaluation of each drink was carried out by ten panels. […] The piercing aroma characteristic to aldehydes is a characteristic aroma common to every aldehyde and refers to an irritant off-smell giving an image of deteriorated oils and fats, soap, metals, Houttuynia cordata, etc. The judgment of smell was performed by comparing the effects at different concentrations of the acid taste and/or acid smell-reducing agent, and a concentration giving the highest acid taste/acid smell quality was selected. […]
compound,measurement,setting,value
"CCCCC/C=C/C/C=C\C=C\C=O [(E,Z,E)-2,4,7-tridecatrienal]","A: number of panels, acid taste/acid smell extreme and cause irritation",0.005 ppt,10
same,"B: number of panels, acid taste/acid smell slightly strong and slightly cause irritation",0.005 ppt,0
same,"C: number of panels, acid taste/acid smell slightly unpleasant",0.005 ppt,0
same,Flavor judgment: number of panels who judged acid taste/acid smell quality the highest,0.005 ppt,0
same,"N: number of panels, irritation of acid reduced to give a mild acid taste",0.005 ppt,0
same,"X: number of panels, acid taste reduced but piercing odor characteristic to aldehydes unpleasant",0.005 ppt,0
same,"A: number of panels, acid taste/acid smell extreme and cause irritation",0.02 ppt,10
same,"B: number of panels, acid taste/acid smell slightly strong and slightly cause irritation",0.02 ppt,0
same,"C: number of panels, acid taste/acid smell slightly unpleasant",0.02 ppt,0
same,Flavor judgment: number of panels who judged acid taste/acid smell quality the highest,0.02 ppt,0
same,"N: number of panels, irritation of acid reduced to give a mild acid taste",0.02 ppt,0
same,"X: number of panels, acid taste reduced but piercing odor characteristic to aldehydes unpleasant",0.02 ppt,0
same,"A: number of panels, acid taste/acid smell extreme and cause irritation",0.1 ppt,10
same,"B: number of panels, acid taste/acid smell slightly strong and slightly cause irritation",0.1 ppt,0
same,"C: number of panels, acid taste/acid smell slightly unpleasant",0.1 ppt,0
same,Flavor judgment: number of panels who judged acid taste/acid smell quality the highest,0.1 ppt,0
same,"N: number of panels, irritation of acid reduced to give a mild acid taste",0.1 ppt,0
same,"X: number of panels, acid taste reduced but piercing odor characteristic to aldehydes unpleasant",0.1 ppt,0
same,"A: number of panels, acid taste/acid smell extreme and cause irritation",0.2 ppt,8
same,"B: number of panels, acid taste/acid smell slightly strong and slightly cause irritation",0.2 ppt,2
same,"C: number of panels, acid taste/acid smell slightly unpleasant",0.2 ppt,0
same,Flavor judgment: number of panels who judged acid taste/acid smell quality the highest,0.2 ppt,0
same,"N: number of panels, irritation of acid reduced to give a mild acid taste",0.2 ppt,0
same,"X: number of panels, acid taste reduced but piercing odor characteristic to aldehydes unpleasant",0.2 ppt,0
same,"A: number of panels, acid taste/acid smell extreme and cause irritation",0.5 ppt,6
same,"B: number of panels, acid taste/acid smell slightly strong and slightly cause irritation",0.5 ppt,2
same,"C: number of panels, acid taste/acid smell slightly unpleasant",0.5 ppt,2
same,Flavor judgment: number of panels who judged acid taste/acid smell quality the highest,0.5 ppt,0
same,"N: number of panels, irritation of acid reduced to give a mild acid taste",0.5 ppt,0
same,"X: number of panels, acid taste reduced but piercing odor characteristic to aldehydes unpleasant",0.5 ppt,0
same,"A: number of panels, acid taste/acid smell extreme and cause irritation",1 ppb,0
same,"B: number of panels, acid taste/acid smell slightly strong and slightly cause irritation",1 ppb,0
same,"C: number of panels, acid taste/acid smell slightly unpleasant",1 ppb,2
same,Flavor judgment: number of panels who judged acid taste/acid smell quality the highest,1 ppb,0
same,"N: number of panels, irritation of acid reduced to give a mild acid taste",1 ppb,4
same,"X: number of panels, acid taste reduced but piercing odor characteristic to aldehydes unpleasant",1 ppb,4
same,"A: number of panels, acid taste/acid smell extreme and cause irritation",1 ppt,0
same,"B: number of panels, acid taste/acid smell slightly strong and slightly cause irritation",1 ppt,6
same,"C: number of panels, acid taste/acid smell slightly unpleasant",1 ppt,3
same,Flavor judgment: number of panels who judged acid taste/acid smell quality the highest,1 ppt,0
same,"N: number of panels, irritation of acid reduced to give a mild acid taste",1 ppt,1
same,"X: number of panels, acid taste reduced but piercing odor characteristic to aldehydes unpleasant",1 ppt,0
same,"A: number of panels, acid taste/acid smell extreme and cause irritation",5 ppt,0
same,"B: number of panels, acid taste/acid smell slightly strong and slightly cause irritation",5 ppt,1
same,"C: number of panels, acid taste/acid smell slightly unpleasant",5 ppt,3
same,Flavor judgment: number of panels who judged acid taste/acid smell quality the highest,5 ppt,4
same,"N: number of panels, irritation of acid reduced to give a mild acid taste",5 ppt,6
same,"X: number of panels, acid taste reduced but piercing odor characteristic to aldehydes unpleasant",5 ppt,0
same,"A: number of panels, acid taste/acid smell extreme and cause irritation",10 ppb,0
same,"B: number of panels, acid taste/acid smell slightly strong and slightly cause irritation",10 ppb,0
same,"C: number of panels, acid taste/acid smell slightly unpleasant",10 ppb,1
same,Flavor judgment: number of panels who judged acid taste/acid smell quality the highest,10 ppb,0
same,"N: number of panels, irritation of acid reduced to give a mild acid taste",10 ppb,2
same,"X: number of panels, acid taste reduced but piercing odor characteristic to aldehydes unpleasant",10 ppb,7
same,"A: number of panels, acid taste/acid smell extreme and cause irritation",20 ppt,0
same,"B: number of panels, acid taste/acid smell slightly strong and slightly cause irritation",20 ppt,0
same,"C: number of panels, acid taste/acid smell slightly unpleasant",20 ppt,3
same,Flavor judgment: number of panels who judged acid taste/acid smell quality the highest,20 ppt,4
same,"N: number of panels, irritation of acid reduced to give a mild acid taste",20 ppt,7
same,"X: number of panels, acid taste reduced but piercing odor characteristic to aldehydes unpleasant",20 ppt,0
same,"A: number of panels, acid taste/acid smell extreme and cause irritation",50 ppb,0
same,"B: number of panels, acid taste/acid smell slightly strong and slightly cause irritation",50 ppb,0
same,"C: number of panels, acid taste/acid smell slightly unpleasant",50 ppb,0
same,Flavor judgment: number of panels who judged acid taste/acid smell quality the highest,50 ppb,0
same,"N: number of panels, irritation of acid reduced to give a mild acid taste",50 ppb,2
same,"X: number of panels, acid taste reduced but piercing odor characteristic to aldehydes unpleasant",50 ppb,8
same,"A: number of panels, acid taste/acid smell extreme and cause irritation",100 ppt,0
same,"B: number of panels, acid taste/acid smell slightly strong and slightly cause irritation",100 ppt,0
same,"C: number of panels, acid taste/acid smell slightly unpleasant",100 ppt,2
same,Flavor judgment: number of panels who judged acid taste/acid smell quality the highest,100 ppt,2
same,"N: number of panels, irritation of acid reduced to give a mild acid taste",100 ppt,8
same,"X: number of panels, acid taste reduced but piercing odor characteristic to aldehydes unpleasant",100 ppt,0
same,"A: number of panels, acid taste/acid smell extreme and cause irritation",500 ppt,0
same,"B: number of panels, acid taste/acid smell slightly strong and slightly cause irritation",500 ppt,0
same,"C: number of panels, acid taste/acid smell slightly unpleasant",500 ppt,3
same,Flavor judgment: number of panels who judged acid taste/acid smell quality the highest,500 ppt,0
same,"N: number of panels, irritation of acid reduced to give a mild acid taste",500 ppt,4
same,"X: number of panels, acid taste reduced but piercing odor characteristic to aldehydes unpleasant",500 ppt,3
